Consider 1 compound from ChEMBL document CHEMBL5729531, “Neprilysin inhibitors” (2023).

Molecules are shown by their SMILES.

The target in the test is Neprilysin/Angiotensin-converting enzyme (Homo sapiens, UniProt P12821+P08473). As to the kind of experiment: Enzyme Inhibition Assay: The assays were performed in 384-well white opaque plates at 37° C. using the fluorogenic peptide substrates at a concentration of 10 μM in Assay Buffer (NEP: 50 mM HEPES, pH 7.5, 100 mM NaCl, 0.01% polyethylene glycol sorbitan monolaurate (Tween-20), 10 μM ZnSO4; ACE: 50 mM HEPES, pH 7.5, 100 mM NaCl, 0.01% Tween-20, 1 μM ZnSO4). The respective enzymes were used at …. Format: protein-complex assay.

Description: Enzyme Inhibition Assay: The assays were performed in 384-well white opaque plates at 37° C. using the fluorogenic peptide substrates at a concentration of 10 μM in Assay Buffer (NEP: 50 mM HEPES, pH 7.5, 100 mM NaCl, 0.01% polyethylene glycol sorbitan monolaurate (Tween-20), 10 μM ZnSO4; ACE: 50 mM HEPES, pH 7.5, 100 mM NaCl, 0.01% Tween-20, 1 μM ZnSO4). […] Test compounds were added to the enzymes and incubated for 30 minute at 37° C. prior to initiating the reaction by the addition of substrate. Reactions were terminated after 20 minutes of incubation at 37° C. by the addition of glacial acetic acid to a final concentration of 3.6% (v/v).

Usually Ki stands for the dissociation constant of the complex between target and ligand, obtained from inhibition or displacement. Higher therefore signals lower affinity. In turn, `O=C(O)C(=O)NC(Cc1ccc(-c2ccccc2)cc1)CC(O)C(=O)O` (stereo unspecified) returned a Ki of 35.5 nM.
